Values after ≈ are worked out from the molar mass of the structure shown. Where two headings read alike, the source gives them in different places.
Experiments:
Format in all cases: cell-based, Staphylococcus aureus
MRSA and MSSA [1] = assay: Enhancing activity for the antibacterial activity of oxacillin by various gallates (agar plate dilution method, oxacillin MIC); conditions: for MIC: Staphylococcus aureus, oxacillin alone
Procedure: According to the agar plate dilution method defined by Japan Society of Chemotherapy, MIC (Minimum inhibitory concentration) was determined. CAMHA was prepared by adding 50 mg/l of Ca-ion, 25 mg/l of Mg-ion, and 2% of NaCl to Mueller-Hinton II Agar (MHA), and it was used as a medium for use in the measurement of sensitivity. The bacterial liquid was incubated at 37° C. overnight and diluted to 10^6 CFU/ml with saline.

MRSA = assay: Potentiating effect of galloyl quinic acid derivatives for the antibacterial activity of oxacillin (agar plate dilution method, MIC); conditions: Staphylococcus aureus, read-out: Oxacillin MIC
Procedure, shortened: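 MIC by agar plate dilution (Japan Society of Chemotherapy) on Mueller-Hinton II agar with 50 mg/l Ca, 25 mg/l Mg and 2% NaCl, inoculum diluted to 10^6 CFU/ml; tara-derived galloyl quinic acids tested combined with oxacillin.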

MRSA and MSSA [2] = assay: Antibacterial activity of gallic acid, various gallates and multivalent phenol derivatives alone (agar plate dilution method, MIC); conditions: for MIC: read-out: MIC alone
Procedure, shortened: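 Agar plate dilution MIC per Japan Society of Chemotherapy, on Mueller-Hinton II agar supplemented with 50 mg/l Ca-ion, 25 mg/l Mg-ion and 2% NaCl. Inoculum grown overnight at 37 °C and diluted in saline to 10^6 CFU/ml. Compounds tested alone.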

[3] = test system: MRSA COL and MRSA Strain No. 5; assay: Potentiating effect of various gallates for antibacterial activity of oxacillin (MIC by broth microdilution method and FIC); conditions: combination with oxacillin
Procedure, shortened: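 Broth microdilution MIC per Japan Society of Chemotherapy method in cation-adjusted Mueller-Hinton broth (50 mg/l Ca, 25 mg/l Mg, 2% NaCl); inoculum 5×10^5 CFU/well from overnight 37° C culture. Gallate–oxacillin combinations evaluated by FIC.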

For `Cc1onc(-c2ccccc2)c1C(=O)N[C@@H]1C(=O)N2[C@@H]1SC(C)(C)[C@@H]2C(=O)O` [Oxacillin, oxacillin], the MIC (MRSA and MSSA [1]; ATCC 6538 / MRSA / MSSA, ATCC 6538) was 0.063 µg/mL, the MIC (MRSA and MSSA [1]; MRSA 1) was over 256 µg/mL and the MIC (MRSA and MSSA [1]; MRSA 2) was 256 µg/mL. For the same compound, the MIC (MRSA and MSSA [1]; MRSA 3) was 128 µg/mL, the MIC (MRSA and MSSA [1]; MRSA 4) was 256 µg/mL and the MIC (MRSA and MSSA [1]; MRSA 5) was 256 µg/mL. For the same compound, the MIC (MRSA and MSSA [1]; MRSA 6) was over 256 µg/mL, the MIC (MRSA and MSSA [1]; MRSA 7) was over 256 µg/mL and the MIC (MRSA and MSSA [1]; MRSA 8) was 128 µg/mL. The MIC (MRSA and MSSA [1]; MRSA 9) was 256 µg/mL, the MIC (MRSA and MSSA [1]; MRSA 10) was 128 µg/mL and the MIC (MRSA and MSSA [1]; MRSA 12) was over 256 µg/mL. It also gave an MIC (MRSA and MSSA [1]; MRSA 16) of 256 µg/mL, an MIC (MRSA and MSSA [1]; MRSA 17) of 256 µg/mL and an MIC (MRSA and MSSA [1]; MRSA 18) of over 256 µg/mL. For the same compound, the MIC (MRSA and MSSA [1]; MRSA 20) was 64 µg/mL, the MIC (MRSA and MSSA [1]; MRSA 21) was 64 µg/mL and the MIC (MRSA and MSSA [1]; MRSA 22) was 32 µg/mL. It also gave an MIC (MRSA and MSSA [1]; MRSA 24) of under 0.5 µg/mL, an MIC (MRSA and MSSA [1]; MRSA COL) of 256 µg/mL and an MIC (MRSA and MSSA [1]; MSSA 1003) of 0.25 µg/mL. It also gave an MIC (MRSA and MSSA [1]; MSSA 1010) of 0.25 µg/mL, an MIC (MRSA and MSSA [1]; MSSA 1020) of 1 µg/mL and an MIC (MRSA and MSSA [1]; MSSA 1023) of 2 µg/mL. The MIC (MRSA and MSSA [1]; MSSA 1029) was 4 µg/mL, the MIC (MRSA and MSSA [1]; MSSA 1032) was 0.13 µg/mL and the MIC (MRSA; ATCC 6538 / MRSA, ATCC 6538, oxacillin alone (—)) was 0.063 µg/mL. The MIC (MRSA; MRSA / MSSA, MSSA 1003, oxacillin alone (—)) was 0.25 µg/mL, the MIC (MRSA; MRSA / MSSA, MSSA 1010, oxacillin alone (—)) was 0.25 µg/mL and the MIC (MRSA; MRSA / MSSA, MSSA 1032, oxacillin alone (—)) was 0.13 µg/mL. The MIC (MRSA; MRSA, MRSA 1, oxacillin alone (—)) was over 256 µg/mL, the MIC (MRSA; MRSA, MRSA 2, oxacillin alone (—)) was 256 µg/mL and the MIC (MRSA; MRSA, MRSA 3, oxacillin alone (—)) was 128 µg/mL. For the same compound, the MIC (MRSA; MRSA, MRSA 4, oxacillin alone (—)) was 256 µg/mL, the MIC (MRSA; MRSA, MRSA 5, oxacillin alone (—)) was 256 µg/mL and the MIC (MRSA; MRSA, MRSA 6, oxacillin alone (—)) was over 256 µg/mL. For the same compound, the MIC (MRSA; MRSA, MRSA 7, oxacillin alone (—)) was over 256 µg/mL, the MIC (MRSA; MRSA, MRSA 8, oxacillin alone (—)) was 128 µg/mL and the MIC (MRSA; MRSA, MRSA 9, oxacillin alone (—)) was 256 µg/mL. The MIC (MRSA; MRSA, MRSA 10, oxacillin alone (—)) was 128 µg/mL, the MIC (MRSA; MRSA, MRSA 12, oxacillin alone (—)) was over 256 µg/mL and the MIC (MRSA; MRSA, MRSA 16, oxacillin alone (—)) was 256 µg/mL. The MIC (MRSA; MRSA, MRSA 17, oxacillin alone (—)) was 256 µg/mL, the MIC (MRSA; MRSA, MRSA 18, oxacillin alone (—)) was over 256 µg/mL and the MIC (MRSA; MRSA, MRSA 20, oxacillin alone (—)) was 64 µg/mL. It also gave an MIC (MRSA; MRSA, MRSA 21, oxacillin alone (—)) of 64 µg/mL, an MIC (MRSA; MRSA, MRSA 22, oxacillin alone (—)) of 32 µg/mL and an MIC (MRSA; MRSA, MRSA COL, oxacillin alone (—)) of 256 µg/mL. For the same compound, the MIC (MRSA; MRSA) was 0.13 µg/mL.

For `CCCCCOC(=O)c1cc(O)c(O)c(O)c1` [Pentyl gallate, n-pentyl gallate], the “effect of combination use with oxacillin (words)” value (MRSA and MSSA [1]; MRSA and MSSA) was “excellent potentiating effect”, the MIC alone (MRSA and MSSA [2]; MRSA #2) was 62.5 µg/mL (≈ 260 µM) and the MIC50 (MRSA and MSSA [2]; Staphylococcus aureus) was 62.5 µg/mL (≈ 260 µM). The MIC (MRSA and MSSA [2]; Staphylococcus aureus, ATCC 6538 / MRSA / MSSA) was 62.5 µg/mL (≈ 260 µM), the MIC (MRSA and MSSA [2]; Staphylococcus aureus, COL) was 62.5 µg/mL (≈ 260 µM) and the MIC (MRSA and MSSA [2]; Staphylococcus aureus, MRSA #1) was 62.5 µg/mL (≈ 260 µM). For the same compound, the MIC (MRSA and MSSA [2]; Staphylococcus aureus, MRSA #2) was 67.5 µg/mL (≈ 281 µM), the MIC (MRSA and MSSA [2]; Staphylococcus aureus, MRSA #3) was 62.5 µg/mL (≈ 260 µM) and the MIC (MRSA and MSSA [2]; Staphylococcus aureus, MRSA #4) was 62.5 µg/mL (≈ 260 µM). For the same compound, the MIC (MRSA and MSSA [2]; Staphylococcus aureus, MRSA #5) was 62.5 µg/mL (≈ 260 µM), the MIC (MRSA and MSSA [2]; Staphylococcus aureus, MRSA #6) was 62.5 µg/mL (≈ 260 µM) and the MIC (MRSA and MSSA [2]; Staphylococcus aureus, MRSA #7) was 62.5 µg/mL (≈ 260 µM). It also gave an MIC (MRSA and MSSA [2]; Staphylococcus aureus, MRSA #8) of 62.5 µg/mL (≈ 260 µM), an MIC (MRSA and MSSA [2]; Staphylococcus aureus, MRSA #9) of 62.5 µg/mL (≈ 260 µM) and an MIC (MRSA and MSSA [2]; Staphylococcus aureus, MRSA #10) of 62.5 µg/mL (≈ 260 µM). The MIC (MRSA and MSSA [2]; Staphylococcus aureus, MRSA #12) was 62.5 µg/mL (≈ 260 µM), the MIC (MRSA and MSSA [2]; Staphylococcus aureus, MRSA #16) was 62.5 µg/mL (≈ 260 µM) and the MIC (MRSA and MSSA [2]; Staphylococcus aureus, MRSA #17) was 62.5 µg/mL (≈ 260 µM). For the same compound, the MIC (MRSA and MSSA [2]; Staphylococcus aureus, MRSA #18) was 62.5 µg/mL (≈ 260 µM), the MIC (MRSA and MSSA [2]; Staphylococcus aureus, MRSA #20) was 62.5 µg/mL (≈ 260 µM) and the MIC (MRSA and MSSA [2]; Staphylococcus aureus, MRSA #21) was 62.5 µg/mL (≈ 260 µM). The MIC (MRSA and MSSA [2]; Staphylococcus aureus, MRSA #22) was 62.5 µg/mL (≈ 260 µM), the MIC (MRSA and MSSA [2]; Staphylococcus aureus, MRSA #24) was 62.5 µg/mL (≈ 260 µM) and the MIC (MRSA and MSSA [2]; Staphylococcus aureus, MSSA #1003) was 62.5 µg/mL (≈ 260 µM). It also gave an MIC (MRSA and MSSA [2]; Staphylococcus aureus, MSSA #1010) of 62.5 µg/mL (≈ 260 µM), an MIC (MRSA and MSSA [2]; Staphylococcus aureus, MSSA #1020) of 62.5 µg/mL (≈ 260 µM) and an MIC (MRSA and MSSA [2]; Staphylococcus aureus, MSSA #1023) of 62.5 µg/mL (≈ 260 µM). It also gave an MIC (MRSA and MSSA [2]; Staphylococcus aureus, MSSA #1029) of 62.5 µg/mL (≈ 260 µM), an MIC (MRSA and MSSA [2]; Staphylococcus aureus, MSSA #1032) of 62.5 µg/mL (≈ 260 µM) and an FIC value ([3]; MRSA COL) of 0.375. For the same compound, the FIC value ([3]; MRSA Strain No. 5) was 0.563.

Source: patent US20060235076A1, “Medicinal composition for treating infection with drug-resistant staphylococcus aureus” (priority 2003, published 2006)
